From patent US10392383B2, “3-(1H-benzo[d]imidazol-2-yl)-1H-pyrazolo[4,3-b]pyridines and therapeutic uses thereof” (Samumed, LLC, priority 2015, dated 2019) come the findings set out here.

The subject of experiment [1] is Wnt activity (Sp5-Luc reporter, Wnt-responsive promoter) in SW480 colon carcinoma cells. In words: Wnt activity screening assay: Sp5-Luc reporter gene assay in SW480 cells. It counts as cell-based. The conditions noted are these: Homo sapiens; for inhibition at 10 µM: read-out: percent inhibition at 10 μM (given for EC50 of >10 μM); for EC50: overnight incubation, 10-point curve starting from 10 μM. The procedure, abridged:
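Luminescence (BrightGlo) was normalised to DMSO-only wells and fitted with a four-parameter variable-slope model for EC50; beyond 10 μM, % inhibition at 10 μM is given. Stable Sp5-Luc SW480 reporter cells, 4,000/well in 1% FBS, were exposed overnight at 37 °C to compounds, top 10 μM, 1:3 dilutions, 0.1% DMSO.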
Background: Reporter assays use an easily measured gene product as a stand-in for the process of interest.

For experiment [2], the system named is primary human fibroblasts derived from IPF patients (LL29 cells) treated with TGF-β1. In words: Inhibition of the fibrotic process: αSMA staining in TGF-β1-treated LL29 fibroblasts. The experiment is classed as cell-based. The conditions noted are these: Fibroblast; for inhibition at 10 µM: LL29 fibroblasts treated with TGF-β1, Table 4, read-out: percent inhibition at 10 μM (given in parentheses for EC50 >10 μM); for EC50: 96 h, LL29 fibroblasts treated with TGF-β1 (20 ng/mL), 4 days, Table 4. In outline: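 EC50 from triplicate-well dose-response fits of % αSMA-positive cells, normalized to TGF-β1-stimulated DMSO controls, with SYTOX-positive dead cells excluded. LL29 IPF fibroblasts received compound at 10 μM–1.87 nM (0.1% DMSO) plus 20 ng/mL TGF-β1 for 4 days in 1% FBS medium; above 10 μM, % inhibition at 10 μM reported.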

Molecules are shown by their SMILES.

By inhibition is commonly meant how much of the control response was suppressed. One may read the EC50 as the concentration at which the effect is half-maximal. Lower therefore signals a more potent agent. For `Cc1cn(-c2cccc3[nH]c(-c4n[nH]c5ccc(-c6cncc(N7CC(N)C7)n6)nc45)nc23)cn1` [Compound 622, 1-(6-(3-(4-(4-Methyl-1H-imidazol-1-yl)-1H-benzo[d]imidazol-2-yl)-1H-pyrazolo[4,3-b]pyridin-5-yl)pyrazin-2-yl)azetidin-3-amine], the values for the inhibition at 10 µM in experiment [1] and in experiment [2] were 12.6% and 0%, respectively. In addition, the EC50 in experiment [1] was above 10 µM; in experiment [2] it was above 10000 nM.

On to `Cc1cn(-c2cccc3[nH]c(-c4n[nH]c5ccc(-c6cncc(OCCN(C)C)c6)nc45)nc23)cn1` [Compound 627, N,N-Dimethyl-2-((5-(3-(4-(4-methyl-1H-imidazol-1-yl)-1H-benzo[d]imidazol-2-yl)-1H-pyrazolo[4,3-b]pyridin-5-yl)pyridin-3-yl)oxy)ethan-1-amine], for which, in experiment [1], the inhibition at 10 µM is 38.1% and the EC50 was above 10 µM. Further, the EC50 in experiment [2] stood at 6760 nM.

On to `CN1CCN(c2cccc3[nH]c(-c4n[nH]c5ccc(-c6cnccn6)nc45)nc23)CC1` [Compound 648, 3-(4-(4-Methylpiperazin-1-yl)-1H-benzo[d]imidazol-2-yl)-5-(pyrazin-2-yl)-1H-pyrazolo[4,3-b]pyridine], for which the results for the inhibition at 10 µM in experiment [1] and in experiment [2] were 37.9% and 0%, respectively. Besides, the figures for the 50% effective concentration (EC50) in experiment [1] and in experiment [2] were above 10 µM and above 10000 nM, respectively.

With `c1ccc2[nH]c(-c3n[nH]c4ccc(-c5cn[nH]c5)nc34)nc2c1` [Compound 651, 3-(1H-Benzo[d]imidazol-2-yl)-5-(1H-pyrazol-4-yl)-1H-pyrazolo[4,3-b]pyridine], in experiment [1], the inhibition at 10 µM was 40.2% and the EC50 was above 10 µM. In experiment [2], the inhibition at 10 µM was 0% and the EC50 was above 10000 nM.

As for `c1ccc2[nH]c(-c3n[nH]c4ccc(-c5cncc(OC6CCNCC6)c5)nc34)nc2c1` [Compound 656, 3-(1H-Benzo[d]imidazol-2-yl)-5-(5-(piperidin-4-yloxy)pyridin-3-yl)-1H-pyrazolo[4,3-b]pyridine], in experiment [1], the inhibition at 10 µM was determined as 4.9% and the EC50 was above 10 µM. For the same compound, in experiment [2], the inhibition at 10 µM stood at 45.9% and the concentration giving a half-maximal response (EC50) is above 10000 nM.

For `Oc1cncc(-c2ccc3[nH]nc(-c4nc5ccccc5[nH]4)c3n2)c1` [Compound 661, 5-(3-(1H-Benzo[d]imidazol-2-yl)-1H-pyrazolo[4,3-b]pyridin-5-yl)pyridin-3-ol], in experiment [1], the inhibition at 10 µM came to 32.4% and the half-maximal effective concentration (EC50) was above 10 µM. Besides, in experiment [2], the inhibition at 10 µM turned out to be 30.3% and the EC50 was above 10000 nM.

Regarding `O=C(CC1CCNCC1)Nc1cncc(-c2ccc3[nH]nc(-c4nc5c(-c6ccsc6)cccc5[nH]4)c3n2)c1` [Compound 673, 2-(Piperidin-4-yl)-N-(5-(3-(4-(thiophen-3-yl)-1H-benzo[d]imidazol-2-yl)-1H-pyrazolo[4,3-b]pyridin-5-yl)pyridin-3-yl)acetamide], the inhibition at 10 µM in experiment [1] stood at 14.9%. Further, the EC50 in experiment [1] is above 10 µM; in experiment [2], 2780 nM.

Take `Cc1ncc(-c2ccc3[nH]nc(-c4nc5c(-c6ccoc6)cccc5[nH]4)c3n2)n1C` [Compound 685, 5-(1,2-Dimethyl-1H-imidazol-5-yl)-3-(4-(furan-3-yl)-1H-benzo[d]imidazol-2-yl)-1H-pyrazolo[4,3-b]pyridine]: the EC50 was 0.257 µM in experiment [1] and 5040 nM in experiment [2].

Take `c1cc(-c2ccoc2)c2nc(-c3n[nH]c4ccc(-c5cncc(OCCN6CCCC6)c5)nc34)[nH]c2c1` [Compound 690, 3-(4-(Furan-3-yl)-1H-benzo[d]imidazol-2-yl)-5-(5-(2-(pyrrolidin-1-yl)ethoxy)pyridin-3-yl)-1H-pyrazolo[4,3-b]pyridine]: the EC50 came out at 4.21 µM in experiment [1] and 2440 nM in experiment [2].

`COc1cncc(-c2ccc3[nH]nc(-c4nc5c(-c6ccoc6)cccc5[nH]4)c3n2)c1` [Compound 692, 3-(4-(Furan-3-yl)-1H-benzo[d]imidazol-2-yl)-5-(5-methoxypyridin-3-yl)-1H-pyrazolo[4,3-b]pyridine]: the EC50 stood at 1.37 µM in experiment [1] and 1410 nM in experiment [2].

Regarding `Cn1cc(-c2ccc3[nH]nc(-c4nc5c(-c6cccs6)cccc5[nH]4)c3n2)cn1` [Compound 700, 5-(1-Methyl-1H-pyrazol-4-yl)-3-(4-(thiophen-2-yl)-1H-benzo[d]imidazol-2-yl)-1H-pyrazolo[4,3-b]pyridine], in experiment [1], the inhibition at 10 µM turned out to be 37.8% and the EC50 is above 10 µM. In experiment [2], this compound registered an EC50 of 391 nM.

Consider `CN(C)CCOc1cncc(-c2ccc3[nH]nc(-c4nc5c(-c6cccs6)cccc5[nH]4)c3n2)c1` [Compound 707, N,N-Dimethyl-2-((5-(3-(4-(thiophen-2-yl)-1H-benzo[d]imidazol-2-yl)-1H-pyrazolo[4,3-b]pyridin-5-yl)pyridin-3-yl)oxy)ethan-1-amine], for which the figures for the EC50 in experiment [1] and in experiment [2] were 4.19 µM and 1350 nM, respectively.

As for `Cc1ccc(-c2cccc3[nH]c(-c4n[nH]c5ccc(C6=CCNCC6)nc45)nc23)s1` [Compound 730, 3-(4-(5-Methylthiophen-2-yl)-1H-benzo[d]imidazol-2-yl)-5-(1,2,3,6-tetrahydropyridin-4-yl)-1H-pyrazolo[4,3-b]pyridine], the EC50 in experiment [1] worked out at 1.01 µM; in experiment [2] it was 1340 nM.

As for `Cc1ccc(-c2cccc3[nH]c(-c4n[nH]c5ccc(-c6cncc(OC7CCCCC7)c6)nc45)nc23)s1` [Compound 735, 5-(5-(Cyclohexyloxy)pyridin-3-yl)-3-(4-(5-methylthiophen-2-yl)-1H-benzo [d]imidazol-2-yl)-1H-pyrazolo[4,3-b]pyridine], the results for the 50% effective concentration (EC50) in experiment [1] and in experiment [2] were 3.81 µM and 1130 nM, respectively.

With `Cn1cc(-c2ccc3[nH]nc(-c4nc5c(-c6cc(F)cc(CNS(C)(=O)=O)c6)cccc5[nH]4)c3n2)cn1` [Compound 764, N-(3-Fluoro-5-(2-(5-(1-methyl-1H-pyrazol-4-yl)-1H-pyrazolo[4,3-b]pyridin-3-yl)-1H-benzo[d]imidazol-4-yl)benzyl)methanesulfonamide], the EC50 in experiment [1] turned out to be 0.539 µM; in experiment [2] it was 1990 nM.

As to `CS(=O)(=O)NCc1cc(F)cc(-c2cccc3[nH]c(-c4n[nH]c5ccc(-c6cncc(NC(=O)CC7CCNCC7)c6)nc45)nc23)c1` [Compound 769, N-(5-(3-(4-(3-Fluoro-5-(methylsulfonamidomethyl)phenyl)-1H-benzo[d]imidazol-2-yl)-1H-pyrazolo[4,3-b]pyridin-5-yl)pyridin-3-yl)-2-(piperidin-4-yl)acetamide], the inhibition at 10 µM in experiment [1] was found to be 12.3%. Moreover, the 50% effective concentration (EC50) is above 10 µM in experiment [1] and 3250 nM in experiment [2].

Consider `Cc1ncc(-c2ccc3[nH]nc(-c4nc5c(-c6cc(F)cc(NCCN(C)C)c6)cccc5[nH]4)c3n2)n1C` [Compound 781, N^1-(3-(2-(5-(1,2-Dimethyl-1H-imidazol-5-yl)-1H-pyrazolo[4,3-b]pyridin-3-yl)-1H-benzo[d]imidazol-4-yl)-5-fluorophenyl)-N^2,N^2-dimethylethane-1,2-diamine], for which the EC50 in experiment [1] turned out to be 0.48 µM; in experiment [2], 917 nM.

As for `CN(C)CCNc1cc(F)cc(-c2cccc3[nH]c(-c4n[nH]c5ccc(-c6cncc(OCCN7CCCC7)c6)nc45)nc23)c1` [Compound 786, N^1-(3-Fluoro-5-(2-(5-(5-(2-(pyrrolidin-1-yl)ethoxy)pyridin-3-yl)-1H-pyrazolo[4,3-b]pyridin-3-yl)-1H-benzo[d]imidazol-4-yl)phenyl)-N^2,N^2-dimethylethane-1,2-diamine], the EC50 in experiment [1] stood at 3.11 µM; in experiment [2] it was 1770 nM.

As to `CN(C)CCNc1cc(F)cc(-c2cccc3[nH]c(-c4n[nH]c5ccc(-c6cncc(OCc7ccccc7)c6)nc45)nc23)c1` [Compound 790, N^1-(3-(2-(5-(5-(Benzyloxy)pyridin-3-yl)-1H-pyrazolo[4,3-b]pyridin-3-yl)-1H-benzo[d]imidazol-4-yl)-5-fluorophenyl)-N^2,N^2-dimethylethane-1,2-diamine], the EC50 in experiment [1] worked out at 1.12 µM; in experiment [2] it was 798 nM.

As for `CN(C)CCNc1cc(F)cc(-c2cccc3[nH]c(-c4n[nH]c5ccc(-c6cnccn6)nc45)nc23)c1` [Compound 792, N^1-(3-Fluoro-5-(2-(5-(pyrazin-2-yl)-1H-pyrazolo[4,3-b]pyridin-3-yl)-1H-benzo[d]imidazol-4-yl)phenyl)-N^2,N^2-dimethylethane-1,2-diamine], the EC50 in experiment [1] was determined as 3.96 µM; in experiment [2], 1900 nM.

In the case of `CN(C)CC(=O)Nc1cncc(-c2ccc3[nH]nc(-c4nc5c(-c6cccc(F)c6)cccc5[nH]4)c3n2)c1` [Compound 969, 2-(Dimethylamino)-N-(5-(3-(4-(3-fluorophenyl)-1H-benzo[d]imidazol-2-yl)-1H-pyrazolo[4,3-b]pyridin-5-yl)pyridin-3-yl)acetamide], the 50% effective concentration (EC50) amounted to 3.99 µM in experiment [1] and 2070 nM in experiment [2].

Turning to `COc1cccc(-c2cccc3[nH]c(-c4n[nH]c5ccc(-c6cccnc6)nc45)nc23)c1` [Compound 994, 3-(4-(3-Methoxyphenyl)-1H-benzo[d]imidazol-2-yl)-5-(pyridin-3-yl)-1H-pyrazolo[4,3-b]pyridine], the concentration giving a half-maximal response (EC50) in experiment [1] is 4.61 µM; in experiment [2], 1050 nM.
